Measured values taken from patent US7989445B2, “Thienopyrimidone compound” (Takeda Pharmaceutical Company Limited, priority 2005, dated 2011).
Counter-ions that a name gives are not always drawn.

`CN(Cc1ccc(CCn2cnc3cc(-c4ccc(Cl)cc4)sc3c2=O)cc1)C(=O)OC(C)(C)C` [Example 3, tert-butyl N-(4-{2-[6-(4-chlorophenyl)-4-oxothieno[3,2-d]pyrimidin-3(4H)-yl]ethyl}benzyl)-N-methylcarbamate] showed a melting point of 206 to 209 °C.
`O=C(Cn1cnc2cc(-c3ccc(Cl)cc3)sc2c1=O)c1ccc2c(c1)CCN(C(=O)C(F)(F)F)CC2` [Example 10, 6-(4-chlorophenyl)-3-{2-oxo-2-[3-(trifluoroacetyl) -2,3,4,5-tetrahydro-1H-3-benzazepin-7-yl]ethyl}thieno[3,2-d]pyrimidin-4(3H)-one] gave a melting point of 285 to 287 °C.
`CN(Cc1ccc(CCn2cnc3cc(-c4ccc(Cl)cc4)sc3c2=O)cc1)S(C)(=O)=O` [Example 24, N-(4-{2-[6-(4-chlorophenyl)-4-oxothieno[3,2-d]pyrimidin-3(4H) -yl]ethyl}benzyl)-N-methylmethanesulfonamide] showed a melting point of 230 to 232 °C.
`CN(Cc1ccc(C(=O)Cn2cnc3cc(-c4ccc(Cl)cc4)sc3c2=O)cc1)C(=O)C(F)(F)F` [Example 12, N-(4-{[6-(4-chlorophenyl)-4-oxothieno[3,2-d]pyrimidin-3(4H) -yl]acetyl}benzyl)-2,2,2-trifluoro-N-methylacetamide] gave a melting point of 235 to 238 °C.
`O=C1CCCCN1Cc1ccc(CCn2cnc3cc(-c4ccc(F)cc4)sc3c2=O)cc1` [Example 26, 6-(4-fluorophenyl)-3-(2-{4-[(2-oxopiperidin-1-yl)methyl]phenyl}ethyl)thieno[3,2-d]pyrimidin-4(3H)-one] gave a melting point of 216 to 217 °C.
In the case of `CN(CC(=O)O)Cc1ccc(CCn2cnc3cc(-c4ccc(Cl)cc4)sc3c2=O)cc1` (as salt: hydrochloride) [Example 30, N-(4-{2-[6-(4-chlorophenyl)-4-oxothieno[3,2-d]pyrimidin-3(4H) -yl]ethyl}benzyl)-N-methylglycine dihydrochloride], the melting point is reported as 252 to 253 °C.
For `CC(=O)N1CCN(Cc2ccc(CCn3cnc4cc(-c5ccc(Cl)cc5)sc4c3=O)cc2)C(=O)C1` [Example 39, 3-(2-{4-[(4-acetyl-2-oxopiperazin-1-yl)methyl]phenyl}ethyl)-6-(4-chlorophenyl)thieno[3,2-d]pyrimidin-4(3H)-one], the melting point was 204 to 207 °C.
Work on `CN(Cc1ccc(CCn2cnc3cc(-c4ccc(Cl)cc4)sc3c2=O)cc1)C(=O)C1CC1` [Example 7, N-(4-{2-[6-(4-chlorophenyl)-4-oxothieno[3,2-d]pyrimidin-3(4H) -yl]ethyl}benzyl)-N-methylcyclopropanecarboxamide] yielded a melting point of 178 °C.
For `CC(c1ccc(CCn2cnc3cc(-c4ccc(Cl)cc4)sc3c2=O)cc1)N1CC[C@H](F)C1` (stereo partly drawn) [Example 19, 6-(4-chlorophenyl)-3-[2-[4-[1-[(3S)-3-fluoropyrrolidin-1-yl]ethyl]phenyl]ethyl]thieno[3,2-d]pyrimidin-4(3H)-one], the melting point was 160 to 163 °C.
`O=C1CCCCN1Cc1ccc(CCn2cnc3cc(-c4ccc(Cl)cc4)sc3c2=O)cc1` [Example 25, 6-(4-chlorophenyl)-3-(2-{4-[(2-oxopiperidin-1-yl)methyl]phenyl}ethyl)thieno[3,2-d]pyrimidin-4(3H)-one] showed a melting point of 199 to 201 °C.
`CC(=O)N(C)N(C(=O)OC(C)(C)C)c1ccc(CCn2cnc3cc(-c4ccc(Cl)cc4)sc3c2=O)cc1` [Example 20] gave a melting point of 193 to 194 °C.
With `CN(CC(=O)OC(C)(C)C)Cc1ccc(CCn2cnc3cc(-c4ccc(Cl)cc4)sc3c2=O)cc1` [Example 29, N-(4-{2-[6-(4-chlorophenyl)-4-oxothieno[3,2-d]pyrimidin-3(4H) -yl]ethyl}benzyl)-N-methylglycine tert-butyl ester] the melting point was 130 °C.
Molecule `CN(C(=O)C(F)(F)F)C1Cc2ccc(C(=O)Cn3cnc4cc(-c5ccc(Cl)cc5)sc4c3=O)cc2C1` (centres unmarked) [Example 15, N-(5-{[6-(4-chlorophenyl)-4-oxothieno[3,2-d]pyrimidin-3(4H) -yl]acetyl}-2,3-dihydro-1H-inden-2-yl)-2,2,2-trifluoro-N -methylacetamide] has a melting point of 245 to 248 °C.
In the case of `CN(C)C(=O)N(C)Cc1ccc(CCn2cnc3cc(-c4ccc(Cl)cc4)sc3c2=O)cc1` [Example 8, N-(4-{2-[6-(4-chlorophenyl)-4-oxothieno[3,2-d]pyrimidin-3(4H) -yl]ethyl}benzyl)-N,N′,N′-trimethylurea], the melting point is reported as 160 to 165 °C.
Work on `CC(=O)NC1CCN(Cc2ccc(CCn3cnc4cc(-c5ccc(Cl)cc5)sc4c3=O)cc2)C1` (centres unmarked) [Example 36, N-[1-(4-{2-[6-(4-chlorophenyl)-4-oxothieno[3,2-d]pyrimidin-3(4H)-yl]ethyl}benzyl)pyrrolidin-3-yl]acetamide] yielded a melting point of 196 to 198 °C.
`O=C1C[C@@H](O)CN1Cc1ccc(CCn2cnc3cc(-c4ccc(Cl)cc4)sc3c2=O)cc1` [Example 33, 6-(4-chlorophenyl)-3-[2-(4-{[(4R)-4-hydroxy-2-oxopyrrolidin-1-yl]methyl}phenyl)ethyl]thieno[3,2-d]pyrimidin-4(3H)-one] gave a melting point of 243 to 246 °C.
`CCN1CCN(Cc2ccc(CCn3cnc4cc(-c5ccc(Cl)cc5)sc4c3=O)cc2)C(=O)C1=O` [Example 34, 1-(4-{2-[6-(4-chlorophenyl)-4-oxothieno[3,2-d]pyrimidin-3(4H) -yl]ethyl}benzyl)-4-ethylpiperazine-2,3-dione] gave a melting point of 285 to 288 °C.
Molecule `O=C1CN(Cc2ccc(CCn3cnc4cc(-c5ccc(Cl)cc5)sc4c3=O)cc2)CCN1` [Example 35, 6-(4-chlorophenyl)-3-(2-{4-[(3-oxopiperazin-1-yl)methyl]phenyl}ethyl)thieno[3,2-d]pyrimidin-4(3H)-one] has a melting point of 232 to 234 °C.
For `CNCC(=O)N(C)Cc1ccc(CCn2cnc3cc(-c4ccc(Cl)cc4)sc3c2=O)cc1` [Example 28, N-(4-{2-[6-(4-chlorophenyl)-4-oxothieno[3,2-d]pyrimidin-3(4H) -yl]ethyl}benzyl)-N,N^2-dimethylglycinamide], the melting point was 166 to 169 °C.
In the case of `CC(=O)N(C)Cc1ccc(C(=O)Cn2cnc3cc(-c4ccc(Cl)cc4)sc3c2=O)cc1` [Example 14, N-(4-{[6-(4-chlorophenyl)-4-oxothieno[3,2-d]pyrimidin-3(4H) -yl]acetyl}benzyl)-N-methylacetamide], the melting point is reported as 250 to 251 °C.
Work on `CC(C)(C)OC(=O)N1CCN(Cc2ccc(CCn3cnc4cc(-c5ccc(Cl)cc5)sc4c3=O)cc2)C(=O)C1` [Example 37, tert-butyl 4-(4-{2-[6-(4-chlorophenyl)-4-oxothieno[3,2-d]pyrimidin-3(4H)-yl]ethyl}benzyl)-3-oxopiperazine-1-carboxylate] yielded a melting point of 165 to 170 °C.
Work on `O=C1CNCCN1Cc1ccc(CCn2cnc3cc(-c4ccc(Cl)cc4)sc3c2=O)cc1` (as salt: hydrochloride) [Example 38, 6-(4-chlorophenyl)-3-(2-{4-[(2-oxopiperazin-1-yl)methyl]phenyl}ethyl)thieno[3,2-d]pyrimidin-4(3H)-one dihydrochloride] yielded a melting point of 271 to 278 °C.
Work on `CNC1Cc2ccc(C(=O)Cn3cnc4cc(-c5ccc(Cl)cc5)sc4c3=O)cc2C1` (centres unmarked) [Example 16, 6-(4-chlorophenyl)-3-{2-[2-(methylamino)-2,3-dihydro-1H-inden-5-yl]-2-oxoethyl}thieno[3,2-d]pyrimidin-4(3H)-one] yielded a melting point of 226 to 229 °C.
For `CNCc1ccc(CCn2cnc3cc(-c4ccc(Cl)cc4)sc3c2=O)cc1` (as salt: hydrochloride) [Example 4, 6-(4-chlorophenyl)-3-(2-{4-[(methylamino)methyl]phenyl}ethyl)thieno[3,2-d]pyrimidin-4(3H)-one dihydrochloride], the melting point was greater than 300 °C.
With `CNC(=O)CN(C)Cc1ccc(CCn2cnc3cc(-c4ccc(Cl)cc4)sc3c2=O)cc1` [Example 31, N^2-(4-{2-[6-(4-chlorophenyl)-4-oxothieno[3,2-d]pyrimidin-3(4H) -yl]ethyl}benzyl)-N,N^2-dimethylglycinamide] the melting point was 146 to 149 °C.
In the case of `CN(Cc1ccc(CCn2cnc3cc(-c4ccc(Cl)cc4)sc3c2=O)cc1)C(=O)CC(C)(C)C` [Example 5, N-(4-{2-[6-(4-chlorophenyl)-4-oxothieno[3,2-d]pyrimidin-3(4H)-yl]ethyl}benzyl)-N,3,3-trimethylbutanamide], the melting point is reported as 181 °C.
